Measurements as given in patent US20260284002A1, “COMPOSITIONS AND METHODS OF CONTROLLING MAMMALIAN SATIETY” (VitaKey Inc., priority 2023, published 2026).

Experiment: Release of linoleic acid in simulated intestinal fluid with 0.2% (w/v) sodium taurocholate
Format: physicochemical
Conditions: simulated intestinal fluid 37° C. with 0.2% (w/v) sodium taurocholate; FIG. 25B
Experimental: A mixture of 40% (w/w) linoleic acid, 30% (w/w) 27-Stearine, and 30% (w/w) CITREM was heated to 80° C. while stirring to allow for complete mixing, followed by cooling at 4° C. for 1 hour. […] Formulated linoleic acid microparticles were added to 3 of these 6 tubes, while unformulated linoleic acid was added to the remaining 3 tubes.

With `CCCCC/C=C\C/C=C\CCCCCCCC(=O)O` [unformulated linoleic acid, linoleic acid] the “emulsification in bile-salt rich simulated intestinal fluid” value was “rapidly emulsified”.
